Measured values taken from US7655688B2, “Fused cyclic succinimide compounds and analogs thereof, modulators of nuclear hormone receptor function” (Bristol-Myers Squibb Company, priority 2001, dated 2010).
Read-outs that look alike come from different tables or passages of the source.

Columns and labels:
AR [1] = target: T1, AR (Rattus norvegicus, UniProt P15207); details: castrated rats
T1 sequence (P15207 1-902): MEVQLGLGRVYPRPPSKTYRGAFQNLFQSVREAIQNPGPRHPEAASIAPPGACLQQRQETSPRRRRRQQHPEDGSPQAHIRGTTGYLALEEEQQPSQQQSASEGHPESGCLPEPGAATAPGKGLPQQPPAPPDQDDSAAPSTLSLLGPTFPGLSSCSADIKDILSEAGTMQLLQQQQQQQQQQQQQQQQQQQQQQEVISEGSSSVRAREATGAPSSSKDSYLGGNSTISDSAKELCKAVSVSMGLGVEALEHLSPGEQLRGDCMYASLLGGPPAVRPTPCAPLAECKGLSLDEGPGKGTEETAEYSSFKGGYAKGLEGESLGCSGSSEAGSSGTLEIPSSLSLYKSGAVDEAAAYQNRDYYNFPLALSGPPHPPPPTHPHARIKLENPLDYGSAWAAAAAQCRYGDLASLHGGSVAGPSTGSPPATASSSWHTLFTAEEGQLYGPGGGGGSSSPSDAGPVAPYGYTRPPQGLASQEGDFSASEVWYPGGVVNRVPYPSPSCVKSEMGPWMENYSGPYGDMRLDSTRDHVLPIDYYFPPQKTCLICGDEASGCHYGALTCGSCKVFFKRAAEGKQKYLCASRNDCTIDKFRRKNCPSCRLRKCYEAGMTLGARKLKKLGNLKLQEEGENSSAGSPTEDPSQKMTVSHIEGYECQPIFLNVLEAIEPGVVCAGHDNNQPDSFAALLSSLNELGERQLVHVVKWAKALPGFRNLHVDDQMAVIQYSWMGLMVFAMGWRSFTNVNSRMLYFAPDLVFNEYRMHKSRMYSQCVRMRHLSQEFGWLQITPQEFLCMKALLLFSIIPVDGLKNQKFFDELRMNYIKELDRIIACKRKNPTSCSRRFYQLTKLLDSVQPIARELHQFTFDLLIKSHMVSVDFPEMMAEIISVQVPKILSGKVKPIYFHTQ
Text: The activity of compounds of the present invention as AR agonists was investigated in an immature male rat model, a recognized test of anabolic effects in muscle and sustaining effects in sex organs for a given compound, as described in L. G. Hershberger et al., Proc. Soc. […] Nem.
The basis of this assay lies in the well-defined action of androgenic agents on the maintenance and growth of muscle tissues and sexual accessory organs in animals and man. […] J. Anat. […] Ital. Biol. Sper. […] II. […] Ital. Biol. Sper. […] As described above, the effects of androgens on maintenance of male sexual accessory organs, such as the prostate and seminal vesicles, is well described. Castration results in rapid involution and atrophy of the prostate and seminal vesicles. This effect can be reversed by exogenous addition of androgens. Since both the levator ani muscle and the male sex organs are the tissues most responsive to the effects of androgenic agents, this model is used to determine the androgen dependent reversal of atrophy in the levator ani muscle and the sex accessory organs in immature castrated rats. Sexually mature rats (200-250 g, 6-8 weeks-old, Sprague-Dawley, Harlan) were acquired castrated from the vendor (Taconic). The rats were divided into groups and treated daily for 7 to 14 days with one of the following: • 1. Control vehicle • 2. […]

AR [2] = target: T1, AR
[3] = system: GR induced AP-1 transrepression; experiment: In vitro assay to measure GR induced AP-1 transrepression (luciferase reporter, A549 cells); format: cell-based; details: concentration of ≦10 μM; 10 ng/ml PMA; typical value
Procedure: The AP-1 assay is a cell based luciferase reporter assay. A549 cells, which contain endogenous glucocorticoid receptor, were stably transfected with an AP-1 DNA binding site attached to the luciferase gene. Cells are then grown in RPMI+10% fetal calf serum (charcoal-treated)+Penicillin/Streptomycin with 0.5 mg/ml geneticin. Cells are plated the day before the assay at approximately 40000 cells/well. On assay day, the media is removed by aspiration and 20 μl assay buffer (RPMI without phenol red+10% FCS (charcoal-treated)+Pen/Strep) is added to each well. At this point either 20 μl assay buffer (control experiments), the compounds of the present invention (“test compounds”) (dissolved in DMSO and added at varying concentrations) or dexamethasome (100 nM in DMSO, positive control) are added to each well. The plates are then pre-incubated for 15 minutes at 37° C., followed by stimulation of the cells with 10 ng/ml PMA. The plates are then incubated for 7 hrs at 37° C. after which 40 μl luciferase substrate reagent is added to each well. Activity is measured by analysis in a luminometer as compared to control experiments treated with buffer or dexamethasome. […] The control, dexamethasone, at a concentration of ≦10 μM typically suppresses activity by 65%.

SMILES	EC50 (increase in organ weight) (AR [1]; dosing for 3 days) [mg]	potency relative to free T (AR [1]; organ weight)	ED80 (organ weight increase) (AR [2]; immature castrated rat model) [mg]	EC50 (increase in organ weight) (AR [2]; immature castrated rats, dosing for 3 days) [mg]	potency relative to free T (AR [2]; immature castrated rats, organ weight)	suppression of activity (% inhibition of the reporter system vs buffer control with PMA alone) [3] [%]
CCC(=O)O[C@H]1CC[C@H]2[C@@H]3CCC4=CC(=O)CC[C@]4(C)[C@H]3CC[C@]12C [TP, Testosterone Propionate]	~0.03	10-30 fold	0.1	~0.03	10-30 fold	
C[C@@H]1C[C@H]2[C@@H]3CCC4=CC(=O)C=C[C@]4(C)[C@@]3(F)[C@@H](O)C[C@]2(C)[C@@]1(O)C(=O)CO [dexamethasone]						65
